# Source: the Kinase Knowledgebase extract (Sharma et al. 2016)
# Molecular target: EGFR (human) (UniProt P00533)
# Experiment: Enzyme Assay
# Conditions: not given
# EGFR (human), sequence (P00533 whole entry, looked up): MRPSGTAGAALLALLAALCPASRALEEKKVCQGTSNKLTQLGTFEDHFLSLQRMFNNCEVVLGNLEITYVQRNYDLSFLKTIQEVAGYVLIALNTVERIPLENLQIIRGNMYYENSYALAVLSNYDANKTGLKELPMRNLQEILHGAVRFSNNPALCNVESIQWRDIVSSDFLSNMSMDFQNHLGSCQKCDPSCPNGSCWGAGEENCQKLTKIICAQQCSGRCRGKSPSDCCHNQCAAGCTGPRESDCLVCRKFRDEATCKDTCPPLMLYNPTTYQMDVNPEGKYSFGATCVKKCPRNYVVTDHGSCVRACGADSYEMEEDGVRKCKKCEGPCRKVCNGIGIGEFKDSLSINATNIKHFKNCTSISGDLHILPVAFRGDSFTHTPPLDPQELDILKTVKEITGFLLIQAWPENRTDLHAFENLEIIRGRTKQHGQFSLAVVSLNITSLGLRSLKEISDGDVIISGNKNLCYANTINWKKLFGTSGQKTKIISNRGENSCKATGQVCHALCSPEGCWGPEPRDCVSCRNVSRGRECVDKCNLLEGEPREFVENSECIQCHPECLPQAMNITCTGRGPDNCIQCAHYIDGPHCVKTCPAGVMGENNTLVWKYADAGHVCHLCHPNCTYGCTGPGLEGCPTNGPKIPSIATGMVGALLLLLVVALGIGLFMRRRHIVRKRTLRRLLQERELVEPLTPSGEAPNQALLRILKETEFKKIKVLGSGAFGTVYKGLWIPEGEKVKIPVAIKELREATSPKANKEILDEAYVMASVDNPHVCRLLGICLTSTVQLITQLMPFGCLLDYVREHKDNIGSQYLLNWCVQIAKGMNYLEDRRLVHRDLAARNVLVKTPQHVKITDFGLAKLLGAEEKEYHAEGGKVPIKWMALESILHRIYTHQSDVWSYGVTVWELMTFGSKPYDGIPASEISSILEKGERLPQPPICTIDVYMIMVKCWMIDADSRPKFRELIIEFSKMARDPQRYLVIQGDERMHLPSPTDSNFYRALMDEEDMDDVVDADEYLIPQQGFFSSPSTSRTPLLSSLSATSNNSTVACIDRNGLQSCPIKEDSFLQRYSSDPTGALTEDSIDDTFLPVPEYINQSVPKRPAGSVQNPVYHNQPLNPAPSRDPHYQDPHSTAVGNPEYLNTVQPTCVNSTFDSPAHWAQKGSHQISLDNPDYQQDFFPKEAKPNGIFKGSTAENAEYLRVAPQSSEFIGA
row,SMILES,IC50 [nM]
1,C[C@@H](Nc1ncnc2sc(-c3ccccc3)cc12)c1ccccc1,59
2,COc1cccc(OC)c1-c1cc2c(N[C@H](C)c3ccccc3)ncnc2s1,1.1
3,COc1cc(C=O)ccc1-c1cc2c(NCc3ccccc3)ncnc2s1,6.3
4,COC[C@@H](Nc1ncnc2[nH]c(-c3ccccc3)cc12)c1ccccc1,1.8
5,Oc1ccccc1-c1cc2c(NCc3ccccc3)ncnc2s1,29
6,C[C@@H](Nc1ncnc2sc(-c3ccccc3CO)cc12)c1ccccc1,38
7,OCc1ccc(-c2cc3c(N[C@H](CO)c4ccccc4)ncnc3[nH]2)cc1,0.4
8,Cc1cccc(-c2cc3c(N[C@H](C)c4ccccc4)ncnc3s2)c1,77
9,COc1c(CO)cccc1-c1cc2c(N[C@H](C)c3ccccc3)ncnc2s1,1.6
10,COc1cc(F)ccc1-c1cc2c(N[C@H](C)c3ccccc3)ncnc2s1,6.3
11,COc1cc(CO)ccc1-c1cc2c(NCc3ccccc3)ncnc2[nH]1,0.5
12,OC[C@@H](Nc1ncnc2sc(-c3ccccc3O)cc12)c1ccccc1,3.4
13,COc1ccc(-c2cc3c(N[C@H](C)c4ccccc4)ncnc3s2)c(OC)c1,5
14,COc1cc(C=O)ccc1-c1cc2c(Nc3ccccc3)ncnc2s1,20
15,COc1cc(CO)ccc1-c1cc2c(N[C@H](CO)c3ccccc3)ncnc2s1,0.3
16,COc1cccc(-c2cc3c(N[C@H](C)c4ccccc4)ncnc3s2)c1,37

row,SMILES,IC50 [nM]
1,COc1cc(C=O)ccc1-c1cc2c(N[C@H](CO)c3ccc(F)cc3)ncnc2[nH]1,0.6
2,COc1ccccc1-c1cc2c(N[C@H](CO)c3ccccc3)ncnc2[nH]1,0.5
3,C[C@@H](Nc1ncnc2sc(-c3cccc(O)c3)cc12)c1ccccc1,45
4,OC[C@@H](Nc1ncnc2[nH]c(-c3ccccc3)cc12)c1ccccc1,0.7
5,C[C@@H](Nc1ncnc2sc(-c3cccc(CO)c3)cc12)c1ccccc1,9.1
6,COc1cc(C=O)ccc1-c1cc2c(N[C@H](CO)c3ccccc3)ncnc2[nH]1,0.3
7,COc1cc(C=O)ccc1-c1cc2c(NCc3ccccc3)ncnc2[nH]1,2.1
8,COc1cc(F)ccc1-c1cc2c(N[C@H](CO)c3ccccc3)ncnc2[nH]1,1
9,COc1cc(C=O)ccc1-c1cc2c(N[C@H](C)c3ccccc3)ncnc2[nH]1,0.5
10,COc1ccc(C=O)cc1-c1cc2c(N[C@H](C)c3ccccc3)ncnc2s1,2.6
11,COc1ccc(-c2cc3c(N[C@H](CO)c4ccccc4)ncnc3o2)cc1,2.7
12,COc1ccc(-c2cc3c(N[C@H](C)c4ccccc4)ncnc3s2)cc1,54
13,Cc1ccccc1-c1cc2c(N[C@H](C)c3ccccc3)ncnc2s1,153
14,COc1ccccc1-c1cc2c(N[C@H](CO)c3ccccc3)ncnc2s1,0.9
15,COc1cc(CO)ccc1-c1cc2c(N[C@H](C)c3ccccc3)ncnc2[nH]1,0.2
16,OC[C@@H](Nc1ncnc2oc(-c3ccc(O)cc3)cc12)c1ccccc1,2

# Continued by falling IC50, values first:
row,IC50 [nM],SMILES
1,105,Cc1ccc(-c2cc3c(N[C@H](C)c4ccccc4)ncnc3s2)cc1
2,84,C[C@@H](Nc1ncnc2sc(-c3ccc(O)cc3)cc12)c1ccccc1
3,35,C[C@@H](Nc1ncnc2sc(-c3ccccc3O)cc12)c1ccccc1
4,33,CC[C@@H](Nc1ncnc2sc(-c3ccccc3O)cc12)c1ccccc1
5,6.7,COc1ccccc1-c1cc2c(N[C@H](C)c3ccccc3)ncnc2s1
6,6.6,C[C@@H](Nc1ncnc2sc(-c3ccc(CO)cc3)cc12)c1ccccc1
7,4.8,COc1cc(CO)ccc1-c1cc2c(NCc3ccccc3)ncnc2s1
8,4.7,COc1ccc(CO)cc1-c1cc2c(N[C@H](C)c3ccccc3)ncnc2s1
9,3.1,COc1cc(CO)ccc1-c1cc2c(Nc3ccccc3)ncnc2s1
10,3,COc1cc(C=O)ccc1-c1cc2c(N[C@H](C)c3ccccc3)ncnc2s1
11,2.2,OCc1ccc(-c2cc3c(N[C@H](CO)c4ccccc4)ncnc3s2)cc1
12,0.8,COc1cc(C=O)ccc1-c1cc2c(N[C@H](CO)c3ccccc3)ncnc2s1
13,0.79,COc1cccc(OC)c1-c1cc2c(N[C@H](CO)c3ccccc3)ncnc2s1
14,0.6,COc1cc(CO)ccc1-c1cc2c(N[C@H](C)c3ccccc3)ncnc2s1
15,0.3,COc1cc(CO)ccc1-c1cc2c(N[C@H](CO)c3ccc(F)cc3)ncnc2[nH]1

# Molecular target: EGFR (human), P00533 [L858R]
# Sequence (P00533 whole entry L858R, looked up): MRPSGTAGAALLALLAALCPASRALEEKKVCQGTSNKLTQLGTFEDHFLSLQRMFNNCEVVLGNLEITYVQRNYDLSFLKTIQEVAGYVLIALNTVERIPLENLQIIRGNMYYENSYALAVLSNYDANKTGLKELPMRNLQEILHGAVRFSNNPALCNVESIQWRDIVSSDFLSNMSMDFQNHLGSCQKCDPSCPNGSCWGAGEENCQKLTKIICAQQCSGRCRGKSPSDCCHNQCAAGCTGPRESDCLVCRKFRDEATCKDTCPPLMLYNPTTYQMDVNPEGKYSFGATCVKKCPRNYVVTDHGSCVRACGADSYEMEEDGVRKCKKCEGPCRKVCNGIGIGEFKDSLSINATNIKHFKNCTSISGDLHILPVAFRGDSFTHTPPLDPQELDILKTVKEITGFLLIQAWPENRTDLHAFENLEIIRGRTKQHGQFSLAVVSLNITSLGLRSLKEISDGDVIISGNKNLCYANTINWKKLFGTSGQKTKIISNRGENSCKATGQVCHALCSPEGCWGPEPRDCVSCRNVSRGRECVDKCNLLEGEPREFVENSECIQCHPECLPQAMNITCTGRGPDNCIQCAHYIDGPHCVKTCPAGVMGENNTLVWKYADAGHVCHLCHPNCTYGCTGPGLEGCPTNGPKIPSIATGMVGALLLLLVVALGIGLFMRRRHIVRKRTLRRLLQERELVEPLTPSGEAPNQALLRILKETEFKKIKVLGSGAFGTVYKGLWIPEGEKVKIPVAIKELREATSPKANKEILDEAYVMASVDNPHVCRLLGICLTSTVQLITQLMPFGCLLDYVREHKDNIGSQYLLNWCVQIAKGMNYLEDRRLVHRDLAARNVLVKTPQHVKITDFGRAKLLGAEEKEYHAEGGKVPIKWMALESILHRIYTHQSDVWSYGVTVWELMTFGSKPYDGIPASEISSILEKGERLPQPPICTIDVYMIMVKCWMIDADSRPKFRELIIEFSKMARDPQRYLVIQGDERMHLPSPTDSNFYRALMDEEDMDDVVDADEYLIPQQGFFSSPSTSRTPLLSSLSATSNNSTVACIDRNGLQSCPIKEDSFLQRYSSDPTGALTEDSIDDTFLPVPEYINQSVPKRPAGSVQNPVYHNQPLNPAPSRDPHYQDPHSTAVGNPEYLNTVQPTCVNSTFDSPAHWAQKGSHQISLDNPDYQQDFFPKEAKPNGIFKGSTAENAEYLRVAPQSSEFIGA
# Experiment: Enzyme Assay
# Conditions: not given
row,SMILES,IC50 [nM]
1,OCc1ccc(-c2cc3c(N[C@H](CO)c4ccccc4)ncnc3[nH]2)cc1,0.4
2,COc1cc(CO)ccc1-c1cc2c(NCc3ccccc3)ncnc2[nH]1,0.8
3,COc1cc(CO)ccc1-c1cc2c(N[C@H](CO)c3ccccc3)ncnc2s1,0.3
4,COc1ccccc1-c1cc2c(N[C@H](CO)c3ccccc3)ncnc2[nH]1,0.1
5,OC[C@@H](Nc1ncnc2[nH]c(-c3ccccc3)cc12)c1ccccc1,1.3
6,COc1ccccc1-c1cc2c(N[C@H](CO)c3ccccc3)ncnc2s1,1.3
7,COc1cc(CO)ccc1-c1cc2c(N[C@H](C)c3ccccc3)ncnc2[nH]1,0.4

# The next lines start with the values.
row,IC50 [nM],SMILES
1,7.71,COc1ccccc1-c1cc2c(N[C@H](C)c3ccccc3)ncnc2s1
2,4.3,COc1cc(C=O)ccc1-c1cc2c(N[C@H](C)c3ccccc3)ncnc2s1
3,2.3,OCc1ccc(-c2cc3c(N[C@H](CO)c4ccccc4)ncnc3s2)cc1
4,0.9,COc1cc(C=O)ccc1-c1cc2c(N[C@H](CO)c3ccccc3)ncnc2s1
5,0.7,COc1cc(CO)ccc1-c1cc2c(N[C@H](C)c3ccccc3)ncnc2s1
6,0.6,COc1cc(CO)ccc1-c1cc2c(N[C@H](CO)c3ccc(F)cc3)ncnc2[nH]1

# Molecular target: EGFR (human), P00533 [L861Q]
# Sequence (P00533 whole entry L861Q, looked up): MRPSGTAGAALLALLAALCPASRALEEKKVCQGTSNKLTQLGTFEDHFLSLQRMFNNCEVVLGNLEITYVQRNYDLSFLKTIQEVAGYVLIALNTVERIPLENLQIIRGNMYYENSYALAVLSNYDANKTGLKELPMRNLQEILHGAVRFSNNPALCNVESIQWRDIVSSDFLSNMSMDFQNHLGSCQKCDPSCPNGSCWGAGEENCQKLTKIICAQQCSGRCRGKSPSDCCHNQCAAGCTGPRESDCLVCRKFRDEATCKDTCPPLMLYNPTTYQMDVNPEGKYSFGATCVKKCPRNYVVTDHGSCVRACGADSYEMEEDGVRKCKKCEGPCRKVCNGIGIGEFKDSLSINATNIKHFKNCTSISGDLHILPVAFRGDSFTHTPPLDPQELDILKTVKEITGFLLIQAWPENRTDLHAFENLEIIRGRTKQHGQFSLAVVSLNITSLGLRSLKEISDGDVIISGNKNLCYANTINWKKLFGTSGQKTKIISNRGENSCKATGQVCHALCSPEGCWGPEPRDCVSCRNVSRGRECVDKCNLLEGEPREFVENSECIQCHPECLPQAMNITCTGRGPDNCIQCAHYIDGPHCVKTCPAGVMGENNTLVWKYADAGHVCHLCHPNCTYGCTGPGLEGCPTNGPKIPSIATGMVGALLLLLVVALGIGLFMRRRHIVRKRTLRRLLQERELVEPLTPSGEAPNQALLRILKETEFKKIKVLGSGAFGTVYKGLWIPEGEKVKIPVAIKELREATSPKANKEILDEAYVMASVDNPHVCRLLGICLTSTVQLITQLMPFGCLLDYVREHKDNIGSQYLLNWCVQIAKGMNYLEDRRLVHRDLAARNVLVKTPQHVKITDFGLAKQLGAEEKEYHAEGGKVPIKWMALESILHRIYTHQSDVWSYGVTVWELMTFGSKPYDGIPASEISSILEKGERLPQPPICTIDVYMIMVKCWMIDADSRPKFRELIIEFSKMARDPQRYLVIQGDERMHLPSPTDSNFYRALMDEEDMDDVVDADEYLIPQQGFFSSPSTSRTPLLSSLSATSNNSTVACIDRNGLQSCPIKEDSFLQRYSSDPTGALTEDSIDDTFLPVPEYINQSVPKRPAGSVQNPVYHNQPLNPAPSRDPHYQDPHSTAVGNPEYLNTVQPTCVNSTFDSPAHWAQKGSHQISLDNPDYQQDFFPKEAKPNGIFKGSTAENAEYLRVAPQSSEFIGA
# Experiment: Enzyme Assay
# Conditions: not given
row,SMILES,IC50 [nM]
1,OCc1ccc(-c2cc3c(N[C@H](CO)c4ccccc4)ncnc3[nH]2)cc1,0.2
2,COc1cc(CO)ccc1-c1cc2c(NCc3ccccc3)ncnc2[nH]1,0.4
3,COc1cc(CO)ccc1-c1cc2c(N[C@H](CO)c3ccccc3)ncnc2s1,0.3
4,COc1ccccc1-c1cc2c(N[C@H](CO)c3ccccc3)ncnc2[nH]1,0.2
5,OC[C@@H](Nc1ncnc2[nH]c(-c3ccccc3)cc12)c1ccccc1,1
6,COc1ccccc1-c1cc2c(N[C@H](CO)c3ccccc3)ncnc2s1,1
7,COc1cc(CO)ccc1-c1cc2c(N[C@H](C)c3ccccc3)ncnc2[nH]1,0.2

# Second part, the compound after the results:
row,IC50 [nM],SMILES
1,9.06,COc1ccccc1-c1cc2c(N[C@H](C)c3ccccc3)ncnc2s1
2,3.9,COc1cc(C=O)ccc1-c1cc2c(N[C@H](C)c3ccccc3)ncnc2s1
3,1.6,OCc1ccc(-c2cc3c(N[C@H](CO)c4ccccc4)ncnc3s2)cc1
4,0.8,COc1cc(C=O)ccc1-c1cc2c(N[C@H](CO)c3ccccc3)ncnc2s1
5,0.6,COc1cc(CO)ccc1-c1cc2c(N[C@H](C)c3ccccc3)ncnc2s1
6,0.5,COc1cc(CO)ccc1-c1cc2c(N[C@H](CO)c3ccc(F)cc3)ncnc2[nH]1

# Molecular target: EGFR (human), P00533 [L858R]
# Experiment: Cell-Based Assay
# Conditions: ba/f3
row,SMILES,IC50 [nM]
1,OCc1ccc(-c2cc3c(N[C@H](CO)c4ccccc4)ncnc3[nH]2)cc1,172
2,COc1cc(CO)ccc1-c1cc2c(N[C@H](CO)c3ccc(F)cc3)ncnc2[nH]1,83
3,COc1ccccc1-c1cc2c(N[C@H](CO)c3ccccc3)ncnc2[nH]1,134
4,OC[C@@H](Nc1ncnc2[nH]c(-c3ccccc3)cc12)c1ccccc1,127
5,COc1cc(CO)ccc1-c1cc2c(N[C@H](C)c3ccccc3)ncnc2[nH]1,99
